# Assays:
# [1] = system: IL-2-induced IFN-γ production; assay: IL-2-Induced IFN-γ Production in the Mouse; assay type: in vivo; conditions: po, 1 h, 30 mg/kg by gavage one hour before IL-2, serum IFN-γ, female BALB/c mice, read-out: inhibition of IL-2-induced IFN-gamma production
# Protocol: Administration of IL-2 leads to an increase in serum IFN-γ in the mouse due to NK secretion of the cytokine (Thornton S, Kuhn K A, Finkelman F D and Hirsch R. NK cells secrete high levels of IFN-γ in response to in vivo administration of IL-2. Eur J Immunol 2001 31:3355-3360). The experiment was carried out essentially according to the protocol in Thornton et al. and the test compounds were administered in order to determine the level of inhibition attained. In summary, female BALB/c mice were fasted for 12-18 hours before a study but had free access to water at all times. Test compounds were administered by gavage one hour before intraperitoneal injection of IL-2 and capture antibody. At termination of the studies, the mice were sacrificed by carbon dioxide inhalation, terminal blood samples were collected by cardiac puncture and serum was generated. Serum was stored frozen until it was assayed for IFN-γ, as described by the kit manufacturer (BD Pharmingen™, San Diego, Calif.).
# Human Jak3 = biological target: T1, Human Jak3 (Homo sapiens, UniProt P52333); assay: Jak3 Kinase Assay (HTRF, GST-Jak3 catalytic domain); assay type: biochemical; conditions: for IC50: (R) and (S) enantiomer pair
# T1 construct: A fragment encoding the catalytic domain of Jak3 (508aa to 1124aa) was ligated with GST at 5′ end; made in house; host or cells: Sf9 insect cells (baculovirus, pFastBac 1)
# T1 sequence (P52333 508-1124): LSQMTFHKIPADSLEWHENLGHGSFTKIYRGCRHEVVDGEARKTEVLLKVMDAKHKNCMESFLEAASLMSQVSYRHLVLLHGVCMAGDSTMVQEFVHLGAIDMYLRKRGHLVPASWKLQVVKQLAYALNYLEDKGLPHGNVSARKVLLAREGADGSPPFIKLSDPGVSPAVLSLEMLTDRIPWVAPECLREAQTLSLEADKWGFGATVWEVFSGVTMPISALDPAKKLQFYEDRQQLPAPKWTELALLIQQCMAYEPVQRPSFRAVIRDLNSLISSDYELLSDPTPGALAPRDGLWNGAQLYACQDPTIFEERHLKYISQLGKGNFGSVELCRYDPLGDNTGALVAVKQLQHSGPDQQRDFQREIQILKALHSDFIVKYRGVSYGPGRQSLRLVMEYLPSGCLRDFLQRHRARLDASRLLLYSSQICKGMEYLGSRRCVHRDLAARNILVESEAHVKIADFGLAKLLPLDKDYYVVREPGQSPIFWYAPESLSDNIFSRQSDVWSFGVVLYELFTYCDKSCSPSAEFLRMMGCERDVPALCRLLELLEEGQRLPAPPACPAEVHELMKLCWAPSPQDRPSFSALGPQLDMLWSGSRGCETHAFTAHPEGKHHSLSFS
# Protocol: Human Jak3 cDNA was amplified by PCR. A fragment encoding the catalytic domain of Jak3 (508aa to 1124aa) was ligated with GST at 5′ end. This fused GST-Jak3 DNA fragment was cloned into the EcoRI site of the donor plasmid pFastBac 1 (Life Technologies #10359-016). The transformation, transposition, and transfection of insect cells (Sf9) were performed according to the manufacture's instructions. The cell lysate containing recombinant GST-Jak3 was used in the kinase assay. Anti-GST antibody (10 μg/ml, Sigma #G1417) was coated onto a 384-well plate at 4° C. overnight. Cell lysate containing GST-Jak3 (1:100 dilution) was added to the anti-GST coated plates, and GST-Jak3 was captured by immobilized anti-GST antibody. Testing compounds and substrate mix (50 mM HEPES, pH 7, 0.5 mM Na3VO4, 25 mM MgCl2, 1 mM DTT, 0.005% BSA, 1 μM ATP, and 4.5 μg/ml biotinyl poly-Glu,Ala,Tyr) were added to the plate to initiate the reaction. After a 60-min incubation, the reaction was stopped by 4 mM EDTA, and phosphorylation of biotinyl poly-Glu,Ala,Tyr was detected using 17 μg/ml Cy5-streptavidin (Amersham, #PA92005) and 2.7 μg/ml Europium-conjugated anti-phosphotyrosine antibody (PerkinElmer #AD0069) using homogeneous time-resolved fluorescence (HTRF) technology.
IC50 (Human Jak3) [µM],SMILES,inhibition at 30 mg/kg [1] [%],Jak3 potency relative to the other enantiomer (Human Jak3; (R) versus (S) enantiomer)
–,C[C@H](c1cccnc1)n1c(=O)[nH]c2cnc(-n3cnc4ccccc43)nc21 [Example 120],> 40,–
< 1,O=c1[nH]c2cnc(-n3cnc4ccccc43)nc2n1[C@H]1CCOc2c(F)cc(F)cc21,–,–
–,O=C1CCC(n2c(=O)[nH]c3cnc(-n4cnc5ccccc54)nc32)c2ccccc21 (stereo not shown) [Example 135],> 40,–
–,O=c1[nH]c2cnc(-n3cnc4ccc(F)cc43)nc2n1C1CCOc2c(F)cccc21 (stereo not shown) [Example 142],> 40,–
< 1,O=c1[nH]c2cnc(-n3cnc4ccccc43)nc2n1[C@@H]1CCOc2c(F)cc(F)cc21,–,more potent than its corresponding (S) enantiomer
–,O=c1[nH]c2cnc(-n3cnc4ccccc43)nc2n1C1CCOc2c(F)cc(F)cc21 (stereo not shown) [Example 151],> 40,–
–,O=c1[nH]c2cnc(-n3cnc4ccccc43)nc2n1[C@@H]1CCOc2c(F)cccc21 [Example 114],> 40,–
–,"C[C@@H]1CCN(C(=O)CC#N)C[C@@H]1N(C)c1ncnc2[nH]ccc12 [CP690550, reference compound]",96,–
–,O=c1[nH]c2cnc(-n3cnc4ccccc43)nc2n1C1CCOc2c(F)ccc(F)c21 (stereo not shown) [Example 162],> 40,–
